Results taken from ChEMBL document CHEMBL1201862, “PubChem BioAssay data set” (2004).
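Assay format: 96-well plates, 48-hour exposure. GI50 marks 50% less growth.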 Active and inactive are the calls of the source. No stated cut-off is given here; in the data, active = GI50 up to about 1.1 µM and inactive = higher.

Legend:
Assay in all cases: NCI anticancer screen, dose series, 48 h
786-0 = tested on: 786-0
A498 = tested on: A498
COLO 205 = tested on: COLO 205
HOP-92 = tested on: HOP-92
Hs-578T = tested on: Hs-578T
M14 = tested on: M14
MDA-MB-231 = tested on: MDA-MB-231
NCI-H522 = tested on: NCI-H522
NCI/ADR-RES = tested on: NCI/ADR-RES
OVCAR-4 = tested on: OVCAR-4
OVCAR-5 = tested on: OVCAR-5
OVCAR-8 = tested on: OVCAR-8
PC-3 = tested on: PC-3
RPMI-8226 = tested on: RPMI-8226
RXF 393 = tested on: RXF 393
SF-268 = tested on: SF-268
SN12C = tested on: SN12C
SW-620 = tested on: SW-620
TK-10 = tested on: TK-10
M19-MEL = tested on: M19-MEL

| SMILES | GI50 (786-0) | GI50 (A498) | GI50 (COLO 205) | GI50 (HOP-92) | GI50 (Hs-578T) | GI50 (M14) | GI50 (MDA-MB-231) | GI50 (NCI-H522) | GI50 (NCI/ADR-RES) | GI50 (OVCAR-4) | GI50 (OVCAR-5) | GI50 (OVCAR-8) | GI50 (PC-3) | GI50 (RPMI-8226) | GI50 (RXF 393) | GI50 (SF-268) | GI50 (SN12C) | GI50 (SW-620) | GI50 (TK-10) | GI50 (M19-MEL) |
| --- | --- | --- | --- | --- | --- | --- | --- | --- | --- | --- | --- | --- | --- | --- | --- | --- | --- | --- | --- | --- |
| O=C(O)C(Sc1ccc(Cl)cc1)Sc1ccc(Cl)cc1 | 48 µM (inactive) | 34.8 µM (inactive) | 25.9 µM (inactive) | 23.7 µM (inactive) | 38.3 µM (inactive) | 39.6 µM (inactive) | 66.8 µM (inactive) | 32.1 µM (inactive) | 47.3 µM (inactive) | 48.4 µM (inactive) | 53 µM (inactive) | 43.9 µM (inactive) | 47.4 µM (inactive) | 31.6 µM (inactive) | > 100 µM (inactive) | 48.9 µM (inactive) | 47 µM (inactive) | 58.7 µM (inactive) | 48.6 µM (inactive) |  |
| Nc1c(S(N)(=O)=O)cc(S(N)(=O)=O)cc1S(N)(=O)=O | > 100 µM (inactive) | > 100 µM (inactive) | > 100 µM (inactive) | > 100 µM (inactive) | > 100 µM (inactive) | > 100 µM (inactive) | > 100 µM (inactive) | > 100 µM (inactive) | > 100 µM (inactive) | > 100 µM (inactive) | > 100 µM (inactive) | > 100 µM (inactive) | 61.1 µM (inactive) | > 100 µM (inactive) | > 100 µM (inactive) | > 100 µM (inactive) | > 100 µM (inactive) | > 100 µM (inactive) | > 100 µM (inactive) |  |
| COC(=O)c1csnn1 | > 100 µM (inactive) |  | > 100 µM (inactive) |  |  | > 100 µM (inactive) |  | > 100 µM (inactive) |  |  |  | > 100 µM (inactive) |  | > 100 µM (inactive) |  | > 100 µM (inactive) | > 100 µM (inactive) | > 100 µM (inactive) | > 100 µM (inactive) | > 100 µM (inactive) |
| Cc1cc(C)n(CN(Cn2nc(C)cc2C)C2CCCCC2)n1 | 23.1 µM (inactive) | > 100 µM (inactive) | 18.1 µM (inactive) | 28.8 µM (inactive) | > 100 µM (inactive) | 20.3 µM (inactive) | 26.6 µM (inactive) | 20.7 µM (inactive) | 19.8 µM (inactive) | 24.2 µM (inactive) | 22.9 µM (inactive) | 25.7 µM (inactive) | 22.9 µM (inactive) | 18.6 µM (inactive) | 22.4 µM (inactive) | 33 µM (inactive) | 27.5 µM (inactive) | 29.7 µM (inactive) | 44.4 µM (inactive) |  |
| CCN(CC)CCn1ncc2ccc3c(c(=O)c4cccnc4n3CCN(CC)CC)c21 | 0.438 µM (active) | 0.598 µM (active) | 0.493 µM (active) | 1.38 µM (inactive) | 2.17 µM (inactive) | 1.41 µM (inactive) | 1.67 µM (inactive) | 0.845 µM (active) | 1.45 µM (inactive) | 0.933 µM (active) | 1.09 µM (active) | 0.561 µM (active) | 0.986 µM (active) | 0.931 µM (active) | 0.67 µM (active) | 1.35 µM (inactive) | 0.621 µM (active) | 0.519 µM (active) | 2.24 µM (inactive) |  |
| CC(=O)NC(CCCNC(=O)NCCCl)C(=O)NCc1ccccc1 (stereo unspecified) | > 100 µM (inactive) |  | > 100 µM (inactive) | > 100 µM (inactive) |  | > 100 µM (inactive) |  | > 100 µM (inactive) |  | > 100 µM (inactive) |  | > 100 µM (inactive) |  | > 100 µM (inactive) | > 100 µM (inactive) | > 100 µM (inactive) | > 100 µM (inactive) | > 100 µM (inactive) | > 100 µM (inactive) | > 100 µM (inactive) |
| CC1=C(C(=O)CC(=O)C(=O)Nc2cc(C)ccc2C)Sc2ccccc2N1 | > 100 µM (inactive) |  |  | 85.7 µM (inactive) |  | > 100 µM (inactive) |  | > 100 µM (inactive) |  | > 100 µM (inactive) | > 100 µM (inactive) | 66.8 µM (inactive) |  | > 100 µM (inactive) | > 100 µM (inactive) | > 100 µM (inactive) | > 100 µM (inactive) | > 100 µM (inactive) | > 100 µM (inactive) | > 100 µM (inactive) |
| O=C(Nc1ccccc1)N(CCCCN(Cc1ccccc1)C(=O)Nc1ccccc1)Cc1ccccc1 | 95.3 µM (inactive) | > 100 µM (inactive) | > 100 µM (inactive) | > 100 µM (inactive) | > 100 µM (inactive) | > 100 µM (inactive) | 48.6 µM (inactive) | 95.3 µM (inactive) | > 100 µM (inactive) | 75.5 µM (inactive) | > 100 µM (inactive) | > 100 µM (inactive) | > 100 µM (inactive) | > 100 µM (inactive) | 43.8 µM (inactive) | > 100 µM (inactive) | > 100 µM (inactive) | > 100 µM (inactive) | > 100 µM (inactive) |  |
| O=C(c1ccccc1)[C@H]1Nc2ccc(Cl)cc2C2c3ccccc3CC21 (stereo partly specified) | 30.8 µM (inactive) |  | 41.1 µM (inactive) |  |  | 31.6 µM (inactive) |  | 95.3 µM (inactive) |  | 22.2 µM (inactive) | > 100 µM (inactive) | 53.8 µM (inactive) |  | > 100 µM (inactive) | 10.5 µM (inactive) | > 100 µM (inactive) | 83.2 µM (inactive) | 50.5 µM (inactive) | 57.1 µM (inactive) | 71.4 µM (inactive) |
| c1ccc2c(c1)CCc1[nH]c3c(c1-2)-c1ccccc1CC3 | 83 µM (inactive) | > 100 µM (inactive) | > 100 µM (inactive) | > 100 µM (inactive) | 36.9 µM (inactive) | 35 µM (inactive) | 33.2 µM (inactive) | 96.4 µM (inactive) | 98.6 µM (inactive) | 61.5 µM (inactive) | > 100 µM (inactive) | > 100 µM (inactive) | 64.1 µM (inactive) | 43.1 µM (inactive) | 45.3 µM (inactive) | 78 µM (inactive) | > 100 µM (inactive) | 98.4 µM (inactive) | 98.6 µM (inactive) |  |
| CC1(C)SCc2nc3ccccc3n21 | > 100 µM (inactive) | > 100 µM (inactive) | > 100 µM (inactive) | > 100 µM (inactive) | > 100 µM (inactive) | > 100 µM (inactive) | > 100 µM (inactive) | > 100 µM (inactive) | > 100 µM (inactive) | > 100 µM (inactive) | > 100 µM (inactive) | > 100 µM (inactive) | > 100 µM (inactive) | > 100 µM (inactive) | > 100 µM (inactive) | > 100 µM (inactive) | > 100 µM (inactive) | > 100 µM (inactive) | > 100 µM (inactive) |  |
| N=C(/C=C/c1ccc(-c2cn3cc(/C=C/C(=N)N4CCOCC4)ccc3n2)cc1)N1CCOCC1 | > 100 µM (inactive) | > 100 µM (inactive) | > 100 µM (inactive) | > 100 µM (inactive) | > 100 µM (inactive) | > 100 µM (inactive) | > 100 µM (inactive) | 62.8 µM (inactive) | > 100 µM (inactive) | > 100 µM (inactive) | > 100 µM (inactive) | > 100 µM (inactive) | > 100 µM (inactive) | 76.4 µM (inactive) | > 100 µM (inactive) | > 100 µM (inactive) | > 100 µM (inactive) | > 100 µM (inactive) | > 100 µM (inactive) |  |
| C/C=C(\C)C(=O)OC1/C=C(\C)CC/C=C(\C)CC2OC(=O)C(C)(OC(C)=O)C12 (stereo unspecified) | > 100 µM (inactive) | > 100 µM (inactive) | > 100 µM (inactive) | > 100 µM (inactive) | > 100 µM (inactive) | > 100 µM (inactive) | > 100 µM (inactive) | > 100 µM (inactive) | > 100 µM (inactive) | > 100 µM (inactive) | > 100 µM (inactive) | > 100 µM (inactive) | > 100 µM (inactive) | > 100 µM (inactive) | > 100 µM (inactive) | > 100 µM (inactive) | > 100 µM (inactive) | > 100 µM (inactive) | > 100 µM (inactive) |  |
| C1=CC=C2NCCCCCC/N=C3\C=CC=CC=C3NCCc3cccc(c3)CC/N=C/2C=C1 | 10 µM (inactive) |  | 14.3 µM (inactive) | 23.7 µM (inactive) |  | 11 µM (inactive) |  | 16.9 µM (inactive) |  | 12.7 µM (inactive) | 14.4 µM (inactive) | 14.8 µM (inactive) |  | 7.45 µM (inactive) | 13.4 µM (inactive) | 31.7 µM (inactive) | 29.7 µM (inactive) | 4.67 µM (inactive) |  | 16.7 µM (inactive) |
| COc1cc2c(/C=C3/C(=O)N(C)c4ccccc43)c(Cl)[nH]c2cc1C | 0.3 µM (active) | 3.19 µM (inactive) | 0.216 µM (active) | 1.81 µM (inactive) | 0.226 µM (active) | 0.195 µM (active) | 0.36 µM (active) | 0.183 µM (active) | 0.17 µM (active) | 0.0906 µM (active) | 0.581 µM (active) | 0.324 µM (active) | 0.29 µM (active) | 0.249 µM (active) | 0.746 µM (active) | 0.207 µM (active) | 0.471 µM (active) | 0.33 µM (active) | 0.284 µM (active) |  |
| C[C@]12C=CC(=O)C=C1CC[C@@H]1[C@@H]2CC[C@]2(C)OC(=O)CC[C@@H]12 [TESTOLACTONE] | > 500 µM (inactive) | 347 µM (inactive) | 480 µM (inactive) | 402 µM (inactive) | 319 µM (inactive) | > 500 µM (inactive) | 327 µM (inactive) | 320 µM (inactive) | > 492 µM (inactive) | 486 µM (inactive) | > 489 µM (inactive) | > 462 µM (inactive) | > 500 µM (inactive) | 450 µM (inactive) | 437 µM (inactive) | > 489 µM (inactive) | 495 µM (inactive) | > 486 µM (inactive) | 499 µM (inactive) |  |
